{"source": "paper PMC10102062", "about": "“Effects of DPTQ, a novel positive allosteric modulator of the dopamine D1 receptor, on spontaneous eye blink rate and spatial working memory in the nonhuman primate” (Psychopharmacology, 2023)", "key": {"dog D1 receptor": {"tested_on": "dog D1 receptor", "assay": "cAMP assay: potentiation of EC20 dopamine in transiently transfected HEK293 cells", "format": "cell-based", "conditions": "dog D1, HEK293 transient, n = 4", "experimental": "(§1) The human, rhesus monkey, dog, or mouse D1 receptor was cloned into the Jump-In vector system (Life Technologies Corp, CA) and transiently transfected into HEK293 cells. Increases in cAMP by DPTQ (free base, Eli Lilly) were measured in the presence of an EC20 concentration of dopamine. The EC50 values for each species along with % max stimulation (where dopamine max stimulation equals 100%) are presented in Table 1. These in vitro studies were performed at Eli Lilly and Company, Indianapolis, in USA. For further details on the measurement of effects on cAMP accumulation in these transiently transfected cells, see Hao et al. ([2019])."}, "human D1 receptor": {"target": "T1, human D1 receptor (Homo sapiens, UniProt P21728)", "T1 construct": "expressed in transfected cells; host or cells: HEK293 (transient, Jump-In vector)", "T1 sequence (P21728 whole entry)": "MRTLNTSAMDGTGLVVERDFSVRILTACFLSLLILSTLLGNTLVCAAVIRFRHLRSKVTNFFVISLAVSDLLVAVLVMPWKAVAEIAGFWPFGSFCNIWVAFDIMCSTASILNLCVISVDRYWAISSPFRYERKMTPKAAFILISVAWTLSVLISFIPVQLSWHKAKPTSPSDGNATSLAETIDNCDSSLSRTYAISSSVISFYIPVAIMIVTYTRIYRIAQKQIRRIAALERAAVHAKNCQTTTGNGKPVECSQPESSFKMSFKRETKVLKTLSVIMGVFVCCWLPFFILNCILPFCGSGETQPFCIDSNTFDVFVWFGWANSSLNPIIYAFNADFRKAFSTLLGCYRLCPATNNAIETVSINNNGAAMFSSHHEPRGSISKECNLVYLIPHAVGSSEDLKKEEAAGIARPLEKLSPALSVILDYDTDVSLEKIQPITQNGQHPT", "assay": "cAMP assay: potentiation of EC20 dopamine in transiently transfected HEK293 cells", "format": "cell-based", "conditions": "human D1, HEK293 transient, n = 4", "experimental": "as §1"}, "mouse D1 receptor": {"target": "T2, mouse D1 receptor (Mus musculus, UniProt Q61616)", "T2 construct": "expressed in transfected cells; host or cells: HEK293 (transient, Jump-In vector)", "T2 sequence (Q61616 whole entry)": "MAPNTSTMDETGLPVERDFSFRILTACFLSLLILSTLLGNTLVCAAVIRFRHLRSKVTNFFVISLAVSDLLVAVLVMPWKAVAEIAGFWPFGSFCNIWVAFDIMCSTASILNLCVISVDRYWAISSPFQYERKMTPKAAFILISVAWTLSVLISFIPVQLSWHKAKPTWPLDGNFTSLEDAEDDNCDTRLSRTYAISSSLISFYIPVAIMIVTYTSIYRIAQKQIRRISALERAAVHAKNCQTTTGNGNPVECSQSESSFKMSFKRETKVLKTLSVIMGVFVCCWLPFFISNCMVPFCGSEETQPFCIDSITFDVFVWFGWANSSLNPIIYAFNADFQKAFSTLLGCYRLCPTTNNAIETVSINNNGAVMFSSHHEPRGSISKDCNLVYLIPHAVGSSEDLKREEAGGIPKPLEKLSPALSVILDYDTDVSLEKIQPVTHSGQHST", "assay": "cAMP assay: potentiation of EC20 dopamine in transiently transfected HEK293 cells", "format": "cell-based", "conditions": "mouse D1, HEK293 transient, n = 4", "experimental": "as §1"}, "[1]": {"target": "T3, rhesus monkey D1 receptor (Macaca mulatta, UniProt O77680)", "T3 construct": "expressed in transfected cells; host or cells: HEK293 (transient, Jump-In vector)", "T3 sequence (O77680 whole entry)": "as the sequence (P21728 whole entry) above, with N311I counted along it", "assay": "cAMP assay: potentiation of EC20 dopamine in transiently transfected HEK293 cells", "format": "cell-based", "conditions": "rhesus D1, HEK293 transient, n = 4", "experimental": "as §1"}, "rhesus monkeys": {"tested_on": "rhesus monkeys", "assay": "Spontaneous eye blink rate, cumulative dosing", "format": "in vivo, rhesus monkey", "description": "Eleven 5–6-year-old, male rhesus monkeys (Chengdu Ping, An Animal Breeding and Research Base, Sichuan Province, China) with an average weight of 4.83 kg were included in the study. The animals were randomly divided into three groups, DPTQ higher cumulative dose group (n = 4); DPTQ lower cumulative dose group (n = 3); and vehicle (20% Captisol (CyDex Pharmaceuticals, Inc., KS) in NaPO4 buffer) group (n = 4). The D1 agonist SKF82958 was included as a positive control; the results for this compound (not shown here) were recently published together with data for a different D1PAM (DETQ, see Bruns et al. [2018]). The D1 selective antagonist SCH39166 hydrobromide (Cat No.: 2299, Batch No.: 3A/129719) was purchased from Tocris, MN, and was prepared in Millipore pure water with the injection volume 0.2 ml/kg. The D1 antagonist was dosed 15 min before vehicle or DPTQ (n = 4 animals per group).\nSpontaneous eye blinking rate was measured during observational experiments conducted in a specially constructed monkey chair (Mason et al. [2019]). A U-shaped neck plate that helped to fixate the orientation of the head was used to facilitate observation of eye blink rate response. A compact video camera (Panasonic/wv-cp480/CH) on a tripod was positioned in front of the seated monkey. Two camera images were combined by video collector (Color QUAD system) and transferred to the EthoVision software (Noldus, Leesburg, VA) on the computer for on-line viewing and recording.\nTwo weeks before testing, monkeys were trained daily to sit in the monkey chair for two 2-h periods with food reward. During post-training test sessions conducted between 9:00 am and 4:30 pm every day, each monkey was studied for nine consecutive 15-min components. Each 15-min block consisted of a 10-min habituation period followed by a 5-min period during which eye blinking was counted. […] Observers blind to the treatment conditions later scored each 5-min videotaped session. An eye blink was defined as a visible, rapid opening and closing of the eyelid. Two observers independently confirmed the measurement with reliability > 90%.\nThe effects of different D1 ligands on spontaneous eye blink rate were studied by a cumulative dosing procedure (Jutikiewicz and Bergman 2004). Active compound or vehicle (Captisol 20% w/v NaPO4 buffer) was administered after obtaining two baseline eye blink recordings. The ligand was given in random order to different monkeys of each group as described above. To study dose response and time course, incremental doses of DPTQ were administrated at the end of 15-min components of each test session.\nDPTQ (free base, see Hao et al. [2019]) was supplied by Eli Lilly Company. Captisol (Lot No.: NC-04A-05034) was prepared as follows: Captisol 20% w/v NaPO4 buffer 25 mM, pH 8. The injection volume for DPTQ was 0.5 ml/kg IM. DPTQ at 0.1 mg/kg, 0.5 mg/kg, and 1 mg/kg were dosed as clear solution, while the 5 mg/kg and 10 mg/kg doses were formulated as fine suspensions. The above vehicle solution was stored at 4℃ in a refrigerator and restored to room temperature before use. When preparing DPTQ fresh daily, a portion of the vehicle (20% Captisol) was added to the compound and stirred to wet, followed by addition of the remainder of the vehicle and mixing until the solution became homogeneous. The suspension was then sonicated on an ice bath for 40 min to reduce particle size. Animals were dosed while in the chair.\nResults for each monkey were expressed as the rate of eye blinking (blinks per minute) averaged over each 5-min testing epoch. The effects of vehicle and D1 PAM on eye blinking were averaged for each group of monkeys and expressed as mean ± SE. The effects of DPTQ and vehicle were analyzed with two-way ANOVA (D1 PAM and time) followed by Bonferroni post hoc test (GraphPad Prism, San Diego CA)."}, "D2 receptor": {"target": "D2 receptor (Homo sapiens, UniProt P14416)", "sequence (P14416 whole entry)": "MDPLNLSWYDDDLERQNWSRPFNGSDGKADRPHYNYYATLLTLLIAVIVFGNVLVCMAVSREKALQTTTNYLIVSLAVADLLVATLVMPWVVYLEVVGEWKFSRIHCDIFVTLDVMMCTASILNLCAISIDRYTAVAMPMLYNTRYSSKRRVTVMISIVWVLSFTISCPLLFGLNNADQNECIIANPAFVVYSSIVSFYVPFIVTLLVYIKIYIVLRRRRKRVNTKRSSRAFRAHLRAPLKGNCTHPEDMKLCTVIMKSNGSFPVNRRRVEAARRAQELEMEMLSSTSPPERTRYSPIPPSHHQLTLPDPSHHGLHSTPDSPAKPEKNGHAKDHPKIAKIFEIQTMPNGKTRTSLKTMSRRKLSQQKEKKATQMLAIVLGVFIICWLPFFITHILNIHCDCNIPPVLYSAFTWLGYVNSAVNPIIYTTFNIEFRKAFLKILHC", "assay": "Broad screening binding study with 3[H]-raclopride", "conditions": "3[H]-raclopride as ligand; unpublished findings"}}}
{"smiles": "C[C@H]1c2cccc(CC(C)(C)O)c2C[C@H](CO)N1C(=O)Cc1c(Cl)cccc1Cl", "note": "[DPTQ]", "values": [{"measurement": "EC50", "setting": "dog D1 receptor", "result": 21.5, "unit": "nM"}, {"measurement": "Max stimulation (% of max DA)", "setting": "dog D1 receptor", "result": "88 % of max DA"}, {"measurement": "EC50", "setting": "human D1 receptor", "result": 22.9, "unit": "nM"}, {"measurement": "Max stimulation (% of max DA)", "setting": "human D1 receptor", "result": "77 % of max DA"}, {"measurement": "EC50", "setting": "mouse D1 receptor", "result": 534, "unit": "nM"}, {"measurement": "Max stimulation (% of max DA)", "setting": "mouse D1 receptor", "result": "41 % of max DA"}, {"measurement": "EC50", "setting": "[1]", "result": 38, "unit": "nM"}, {"measurement": "Max stimulation (% of max DA)", "setting": "[1]", "result": "82 % of max DA"}, {"measurement": "Increase in eye blink rate after SCH39166 pretreatment", "setting": "rhesus monkeys; DPTQ 0.5, 5, 10 mg/kg cumulative, SCH39166 0.03 mg/kg IM 15 min before", "result": "small, non-significant"}, {"measurement": "Oral movement", "setting": "rhesus monkeys; both high and lower cumulative doses, clear effect only at higher dose at 30 min", "result": "some degree of oral movement such as tongue protrusion"}, {"measurement": "Spontaneous eye blink rate vs vehicle", "setting": "rhesus monkeys; higher cumulative dose 0.5, 5 and 10 mg/kg IM, at 30, 45, 60 and 75 min", "result": "significant increases"}, {"measurement": "Spontaneous eye blink rate vs vehicle", "setting": "rhesus monkeys; lower cumulative dose 0.1, 1 and 5 mg/kg IM, only at 45 and 60 min", "result": "small but significant"}, {"measurement": "Ki", "setting": "D2 receptor", "result": "> 5600", "unit": "nM"}]}
